Earlier results as cited in patent US20110256072A1, “FOOD AND COMPOSITION EACH COMPRISING PHOSPHORYLATED SACCHARIDE, POLYPHENOL AND FLUORIDE” (EZAKI GLICO CO., LTD., priority 2008, published 2011).
Values joined by “and” are separate entries in the source; they are usually repeats but may differ in a detail not shown here. Equal entries are not always repeated. Where two headings read alike, the source gives them in different places.

System: dental caries

SMILES	Inhibition rate (in vivo)	also measured
[F-].[Na+] [2% Sodium fluoride solution, Sodium fluoride]	20-40%	
[F-].[Na+] [NaF: 0.05% every day method, NaF]		Inhibition rate (Fluoride mouth washing method, 226 ppm, Permanent tooth): 20-50%
[F][Sn][F] [SnF2: 8% Solution, SnF2]		Inhibition rate (Local application to dental surface, 19,400 ppm, Permanent tooth): 20-50%
[F-].[Na+] [Sodium fluoride]	25-50% and 20-40% and ~30%	
